This note sets out measurements from ChEMBL document CHEMBL3862009 (Bioorg Med Chem Lett, 2016).

For experiment [1], the target named is T1, Histamine H4 receptor (Homo sapiens, UniProt Q9H3N8). The experiment is described as follows: Intrinsic activity at human histamine H4 receptor expressed in human SH-SY5Y cell membranes by [35S]GTPgammaS binding assay. It counts as functional. Background: GTPγS resists hydrolysis and so accumulates on activated G proteins.
Experiment [2] deals with T1, Histamine H4 receptor. The experiment is described as follows: Antagonist activity at human histamine H4 receptor expressed in human SH-SY5Y cell membranes assessed as inhibition of Imetit-induced [35S]GTPgammaS binding. It counts as functional.
In experiment [3] the test system is HEK293. The experiment is described as follows: Selectivity ratio of Ki for human H3 receptor expressed in HEK293 cell membranes to Kb for human histamine H4 receptor expressed in human SH-SY5Y cell membranes. Format: cell-based.
Experiment [4] concerns the target T2, Histamine H3 receptor (Homo sapiens, UniProt Q9Y5N1). The experiment is described as follows: Displacement of [125I]iodoproxyfan from human H3 receptor expressed in HEK293 cell membranes after 1 hr. A general note: Displacement assays read how much labelled ligand stays bound in the presence of the test substance.
In experiment [5] the target is T2, Histamine H3 receptor. The experiment is described as follows: Antagonist activity at human histamine H3 receptor.
Experiment [6] concerns the target T1, Histamine H4 receptor. Put plainly: Binding affinity to histamine H4 receptor (unknown origin).
The target of experiment [7] is T2, Histamine H3 receptor. The experiment is described as follows: Binding affinity to histamine H3 receptor (unknown origin).

SMILES strings stand for the structures. A value given as a limit tells only on which side of the number the result lay.

T1 sequence (Q9H3N8 whole entry): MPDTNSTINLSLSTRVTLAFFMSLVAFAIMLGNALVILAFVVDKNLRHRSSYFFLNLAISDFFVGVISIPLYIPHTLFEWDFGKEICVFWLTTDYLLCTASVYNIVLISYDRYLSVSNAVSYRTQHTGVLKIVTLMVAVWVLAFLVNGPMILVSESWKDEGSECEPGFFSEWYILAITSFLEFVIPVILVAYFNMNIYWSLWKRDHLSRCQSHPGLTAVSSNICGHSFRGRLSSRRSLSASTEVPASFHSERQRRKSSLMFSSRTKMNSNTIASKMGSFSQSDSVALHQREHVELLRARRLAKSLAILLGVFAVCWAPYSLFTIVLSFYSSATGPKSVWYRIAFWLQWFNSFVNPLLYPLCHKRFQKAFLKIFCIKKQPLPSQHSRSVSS
T2 sequence (Q9Y5N1 whole entry): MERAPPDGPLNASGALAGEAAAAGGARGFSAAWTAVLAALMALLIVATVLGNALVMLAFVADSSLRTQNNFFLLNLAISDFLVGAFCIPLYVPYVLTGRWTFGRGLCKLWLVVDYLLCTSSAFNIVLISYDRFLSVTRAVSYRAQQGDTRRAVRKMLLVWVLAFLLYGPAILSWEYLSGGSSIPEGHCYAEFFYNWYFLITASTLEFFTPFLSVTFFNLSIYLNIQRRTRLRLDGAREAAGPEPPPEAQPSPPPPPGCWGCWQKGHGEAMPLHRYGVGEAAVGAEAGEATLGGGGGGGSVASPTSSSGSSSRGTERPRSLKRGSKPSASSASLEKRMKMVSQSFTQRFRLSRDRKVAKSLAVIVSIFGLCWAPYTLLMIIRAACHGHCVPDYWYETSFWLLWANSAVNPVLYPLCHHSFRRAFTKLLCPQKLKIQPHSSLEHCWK

By Kb is commonly meant the affinity of an antagonist, worked out from how it opposes an agonist. Consider `Cc1nc(CCCOC(c2ccccc2)c2nc3ccccc3s2)c[nH]1` (configuration not stated), for which, in experiment [1], the Intrinsic activity was found to be 0. For the same compound, the Kb in experiment [2] was above 10 µM.
What is called Ki is the dissociation constant of the complex between target and ligand, obtained from inhibition or displacement. Low values mean a stronger hold on the target, high ones a looser hold on the target. In turn, `c1ccc(C(OCCCc2c[nH]cn2)c2ccccc2)cc1` came in with an Intrinsic activity in experiment [1] of 0. Also, the Selectivity ratio in experiment [3] stood at 0.9. Besides, the Ki in experiment [4] and in experiment [5] was 0.017 µM each time. Besides, the Kb in experiment [2] was determined as 0.019 µM.
`c1ccc(C(OCCCc2c[nH]cn2)c2cncnc2)cc1` (configuration not stated) registered an Intrinsic activity in experiment [1] of 0. Moreover, the Kb in experiment [2] stood at 0.029 µM.
Turning to `c1ccc(C(OCCCCn2ccnc2)c2nc3ccccc3s2)cc1` (configuration not stated), the Intrinsic activity in experiment [1] amounted to 0. Further, the Kb in experiment [2] is above 10 µM.
The like results for `Cn1cncc1CCCOC(c1ccccc1)c1nc2ccccc2s1` (configuration not stated) were, in that order, 0 and above 10 µM.
Regarding `c1ccc(C(OCCCc2c[nH]cn2)c2nc3ccccc3s2)cc1` (configuration not stated), in experiment [1], the Intrinsic activity came out at 0. Moreover, in experiment [3], the Selectivity ratio came out at 31. In experiment [4], the affinity, expressed as Ki, was 0.034 µM. In addition, the antagonist dissociation constant (Kb) in experiment [2] was 0.0011 µM.
With `c1ccc(C(OCCCn2ccnc2)c2nc3ccccc3s2)cc1` (configuration not stated), the Intrinsic activity in experiment [1] came out at 0. Moreover, the antagonist equilibrium constant (Kb) in experiment [2] was above 10 µM.
The like results for `c1ccc(C(OCCCc2c[nH]cn2)c2ccc3ccccc3c2)cc1` (configuration not stated) were, in that order, 0 and 0.1 µM.
Regarding `Cn1cnc(CCN)c1` [N-METHYLHISTAMINE], the Ki amounted to 11 µM in experiment [6] and 20 µM in experiment [7].
Consider `c1ccc(C(OCc2c[nH]cn2)c2nc3ccccc3s2)cc1` (configuration not stated), for which, in experiment [1], the Intrinsic activity is 0. The Kb in experiment [2] is 0.399 µM.
In the same order, the values of `c1ccc(C(OCCCc2c[nH]cn2)c2cccnc2)cc1` (configuration not stated) are 0 and 0.032 µM.
The like results for `Cn1cnc(CCCOC(c2ccccc2)c2nc3ccccc3s2)c1` (configuration not stated) were, in that order, 0 and above 10 µM.
For `Cc1[nH]cnc1CCCOC(c1ccccc1)c1nc2ccccc2s1` (configuration not stated), the Intrinsic activity in experiment [1] came to 0. In addition, the Kb in experiment [2] worked out at 0.0016 µM.
The like results for `c1ccc(-c2ccc(C(OCCCc3c[nH]cn3)c3ccccc3)cc2)cc1` (configuration not stated) were, in that order, 0 and 0.017 µM.
The like results for `c1ccc(C(OCCn2ccnc2)c2nc3ccccc3s2)cc1` (configuration not stated) were, in that order, 0 and above 10 µM.
The like results for `c1ccc(C(OCCc2c[nH]cn2)c2nc3ccccc3s2)cc1` (configuration not stated) were, in that order, 0 and 0.0037 µM.
